Publication PMC12292835, “Amylin Receptor 1 Mutagenesis Revealed a Potential Role of Calcitonin Serine 29 in Receptor Interaction” (Biomedicines, 2025)
Where a SMILES comes first, the peptide text is derived from it. The star is where a group is joined. FITC = O=C1OC2(c3ccc(O)cc3Oc3cc(O)ccc32)c2ccc(NC(=S)*)cc21

How the values were obtained:
[1] = target: T1, amylin receptor 1 ECD with calcitonin receptor D101E mutation (Homo sapiens, UniProt O60894+P30988, D101E); assay: FP saturation binding, D101E; conditions: for Average fluorescence intensity change upon receptor ECD binding: % of a free probe intensity, Mean ± S.D., max receptor 3 μM (sCT), 1 μM (AC413)
T1 construct: pHLsec/hRAMP1.24–111-(GSA)3-hCTR.34–141.D101E-H6 (D-pJJ002); H6 (hexahistidine) (C); made in house; host or cells: HEK293 (transient transfection, secreted, N-glycosylated)
Description: (§1) pHLsec-based vectors were used to express wild-type and mutated amylin receptor 1 extracellular domains as secreted proteins to cell culture media. The plasmid DNA construct of the wild-type amylin receptor 1 extracellular domain, pHLsec/hRAMP1.24–111-(GSA)3-hCTR.34–141-H6 (H-pSL005) was previously described. The following DNA vector plasmids were made for this study: pHLsec/hRAMP1.24–111-(GSA)3-hCTR.34–141.D97A-H6 (D-pSL009), pHLsec/hRAMP1.24–111-(GSA)3-hCTR.34–141.D97E-H6 (D-pJS001), pHLsec/hRAMP1.24–111-(GSA)3-hCTR.34–141.D101A-H6 (D-pJJ003), pHLsec/hRAMP1.24–111-(GSA)3-hCTR.34–141.D101E-H6 (D-pJJ002), pHLsec/hRAMP1.24–111-(GSA)3-hCTR.34–141.E123A-H6 (D-pJJ004), pHLsec/hRAMP1.24–111-(GSA)3-hCTR.34–141.E123D-H6 (D-pJJ001), pHLsec/hRAMP1.24–111-(GSA)3-hCTR.34–141.N124A-H6 (D-pJS005), pHLsec/hRAMP1.24–111-(GSA)3-hCTR.34–141.N124D-H6 (D-pJS006), pHLsec/hRAMP1.24–111-(GSA)3-hCTR.34–141.N135A-H6 (D-pJW001), and pHLsec/hRAMP1.24–111-(GSA)3-hCTR.34–141.N135D-H6 (D-pJS002). The mutations were introduced to the calcitonin receptor extracellular domain by using DNA Assembly reaction. Coding sequences of the receptor expression vectors were confirmed with Sanger sequencing by Bionics (Seoul, Republic of Korea). DNA plasmid vectors were extracted and were purified from bacterial cells with NucleoBond® Extra Midi Plus kit (Macherey-Nagel, Germany). The purified DNA vectors were stored at −20 °C until their use for mammalian cell transfection.
The overall experimental procedure of reconstituting the functional amylin receptor 1 extracellular domain (ECD) as the fusion protein of RAMP1 ECD and the calcitonin receptor ECD was previously described. The wild-type and mutated amylin receptor 1 ECDs were expressed from HEK293 cells with transient transfection with polyethylenimine. […]
(§2) The overall procedure of the FP binding assay with a saturation binding format was previously described. […] FITC-labeled peptide probes were incubated for 1 h at room temperature with the purified receptor protein prior to fluorescence signal measurement. […]

[2] = target: T2, amylin receptor 1 ECD with calcitonin receptor N135A mutation (Homo sapiens, UniProt O60894+P30988, N135A); assay: FP saturation binding, N135A; conditions: for Average fluorescence intensity change upon receptor ECD binding: % of a free probe intensity, Mean ± S.D., max receptor 3 μM (sCT), 1 μM (AC413); for effect of mutation on binding affinity: in words
T2 construct: pHLsec/hRAMP1.24–111-(GSA)3-hCTR.34–141.N135A-H6 (D-pJW001); H6 (hexahistidine) (C); made in house; host or cells: HEK293 (transient transfection, secreted, N-glycosylated)
Description: as §1
(§3) The overall experimental procedure of reconstituting the functional amylin receptor 1 extracellular domain (ECD) as the fusion protein of RAMP1 ECD and the calcitonin receptor ECD was previously described. The wild-type and mutated amylin receptor 1 ECDs were expressed from HEK293 cells with transient transfection with polyethylenimine. The expressed receptor proteins were secreted to cell culture media for 4 days at 37 °C. The media were collected for the receptor protein purification. Initial dialysis was performed with the dialysis buffer (Tris 25 mM (pH 7.4), NaCl 150 mM, and imidazole 10 mM) overnight. […] Then, a size exclusion column chromatography (SEC) was performed with SEC column (Cytiva, HiLoad® 16/600 Superdex® 200 pg) and SEC buffer (Tris 50 mM (pH 7.4), NaCl 150 mM, and glycerol (v/v) 10%) as previously described. As the final step, the purified receptor proteins were dialyzed to storage buffer (HEPES 25 mM (pH 7.4), NaCl 150 mM, and glycerol (v/v) 50 %) and were stored at −60 °C until their use for the receptor–ligand binding assay. […]
as §2

[3] = target: T3, amylin receptor 1 ECD with calcitonin receptor N135D mutation (Homo sapiens, UniProt O60894+P30988, N135D); assay: FP saturation binding, N135D; conditions: for Average fluorescence intensity change upon receptor ECD binding: % of a free probe intensity, Mean ± S.D., max receptor 3 μM (sCT), 1 μM (AC413); for effect of mutation on binding affinity: in words
T3 construct: pHLsec/hRAMP1.24–111-(GSA)3-hCTR.34–141.N135D-H6 (D-pJS002); H6 (hexahistidine) (C); made in house; host or cells: HEK293 (transient transfection, secreted, N-glycosylated)
Description: as §1, §3, §2

[4] = target: T4, amylin receptor 1 ECD with calcitonin receptor E123D mutation (Homo sapiens, UniProt O60894+P30988, E123D); assay: FP saturation binding, E123D; conditions: for Average fluorescence intensity change upon receptor ECD binding: % of a free probe intensity, Mean ± S.D., max receptor 3 μM (sCT), 1 μM (AC413); for effect of mutation on binding affinity: compared with E123A, in words
T4 construct: pHLsec/hRAMP1.24–111-(GSA)3-hCTR.34–141.E123D-H6 (D-pJJ001); H6 (hexahistidine) (C); made in house; host or cells: HEK293 (transient transfection, secreted, N-glycosylated)
Description: as §1, §3, §2

[5] = target: T5, amylin receptor 1 ECD with calcitonin receptor D97A mutation (Homo sapiens, UniProt O60894+P30988, D97A); assay: FP saturation binding, D97A; conditions: for Average fluorescence intensity change upon receptor ECD binding: % of a free probe intensity, Mean ± S.D., max receptor 3 μM (sCT), 1 μM (AC413)
T5 construct: pHLsec/hRAMP1.24–111-(GSA)3-hCTR.34–141.D97A-H6 (D-pSL009); H6 (hexahistidine) (C); made in house; host or cells: HEK293 (transient transfection, secreted, N-glycosylated)
Description: as §1, §3, §2

T3 sequence (O60894 24-111): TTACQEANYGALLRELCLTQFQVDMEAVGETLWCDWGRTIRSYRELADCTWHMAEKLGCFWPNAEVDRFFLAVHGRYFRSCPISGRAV
T3 sequence (P30988 34-141 N135D): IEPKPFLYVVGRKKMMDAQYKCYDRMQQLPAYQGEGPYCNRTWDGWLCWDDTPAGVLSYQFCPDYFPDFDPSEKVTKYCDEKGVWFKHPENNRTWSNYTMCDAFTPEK
T2 sequence (O60894 24-111): as the sequence (O60894 24-111) above
T2 sequence (P30988 34-141 N135A): as the sequence (P30988 34-141 N135D) above, with D102A counted along it
T5 sequence (O60894 24-111): as the sequence (O60894 24-111) above
T5 sequence (P30988 34-141 D97A): as the sequence (P30988 34-141 N135D) above, with D64A, D102N counted along it
T4 sequence (O60894 24-111): as the sequence (O60894 24-111) above
T4 sequence (P30988 34-141 E123D): as the sequence (P30988 34-141 N135D) above, with E90D, D102N counted along it
T1 sequence (O60894 24-111): as the sequence (O60894 24-111) above
T1 sequence (P30988 34-141 D101E): as the sequence (P30988 34-141 N135D) above, with D68E, D102N counted along it

SMILES	Average fluorescence intensity change upon receptor ECD binding [1]	Average fluorescence intensity change upon receptor ECD binding [2]	effect of mutation on binding affinity [2]	Average fluorescence intensity change upon receptor ECD binding [3]	effect of mutation on binding affinity [3]	Average fluorescence intensity change upon receptor ECD binding [4]	effect of mutation on binding affinity [4]	Average fluorescence intensity change upon receptor ECD binding ([5]; D97A)	effect of mutation on binding affinity ([5]; D97A, in words)	effect of mutation on binding affinity ([1]; in words)	decrease of binding affinity ([5]; D97A versus wild-type receptor ECD)
CC(C)C[C@H](NC(=O)[C@H](CCCNC(=N)N)NC(=O)[C@@H](NC(=O)[C@H](CC(C)C)NC(=O)[C@H](Cc1ccccc1)NC(=O)[C@H](CC(N)=O)NC(=O)[C@H](C)NC(=S)Nc1ccc2c(c1)C(=O)OC21c2ccc(O)cc2Oc2cc(O)ccc21)C(C)C)C(=O)N[C@@H](CCC(N)=O)C(=O)N[C@H](C(=O)N[C@@H](Cc1ccc(O)cc1)C(=O)N1CCC[C@H]1C(=O)N[C@@H](CCCNC(=N)N)C(=O)N[C@H](C(=O)N[C@@H](CC(N)=O)C(=O)N[C@H](C(=O)NCC(=O)N[C@@H](C)C(=O)N[C@@H](CC(N)=O)C(=O)N[C@H](C(=O)N1CCC[C@H]1C(N)=O)[C@@H](C)O)C(C)C)[C@@H](C)O)[C@@H](C)O [FITC-AC413(6–25) Y25P] ({FITC}-ANFLVRLQTYPRTNVGANTP-NH2; C-terminus assumed)	99 ± 3%	87 ± 15%	markedly decreased the binding affinity	85 ± 15%	failed to recover the binding affinity	72 ± 4%	failed to restore the decreased binding affinity	71 ± 4%	not significantly changed		
C[C@@H](O)[C@H](NC(=O)[C@H](CC(N)=O)NC(=O)[C@@H](NC(=O)[C@H](CCCNC(=N)N)NC(=O)[C@@H]1CCCN1C(=O)[C@H](Cc1ccc(O)cc1)NC(=S)Nc1ccc2c(c1)C(=O)OC21c2ccc(O)cc2Oc2cc(O)ccc21)[C@@H](C)O)C(=O)NCC(=O)N[C@@H](CO)C(=O)NCC(=O)N[C@H](C(=O)N1CCC[C@H]1C(N)=O)[C@@H](C)O [FITC-sCT(22–32)] ({FITC}-YPRTNTGSGTP-NH2; C-terminus assumed)	118 ± 13%	81 ± 10%	markedly decreased the binding affinity	99 ± 0.1%	failed to recover the binding affinity	72 ± 6%	fully restored the decreased binding affinity	75 ± 12%		failed to recover the binding affinity	6.8 fold
